Publication PMC9005681, “Use of AD Informer Set compounds to explore validity of novel targets in Alzheimer's disease pathology” (Alzheimer's & Dementia : Translational Research & Clinical …, 2022)
Values joined by “and” are separate entries in the source; they are usually repeats but may differ in a detail not shown here. Equal entries are not always repeated.

How the values were obtained:
Assay in all cases: PDSP GPCR panel primary binding assays at 10 μM
[1] = target: T1, cloned human or rodent CNS receptors, channels, and transporters (PDSP panel) (Homo sapiens, UniProt P08172); conditions: M2, primary assay; for Mean %: mean inhibition; for Inhibition 1: replicate 1; for Inhibition 2: replicate 2; for Inhibition 3: replicate 3; for Inhibition 4: replicate 4
T1 construct: expressed in transfected cells
T1 sequence (P08172 1-466): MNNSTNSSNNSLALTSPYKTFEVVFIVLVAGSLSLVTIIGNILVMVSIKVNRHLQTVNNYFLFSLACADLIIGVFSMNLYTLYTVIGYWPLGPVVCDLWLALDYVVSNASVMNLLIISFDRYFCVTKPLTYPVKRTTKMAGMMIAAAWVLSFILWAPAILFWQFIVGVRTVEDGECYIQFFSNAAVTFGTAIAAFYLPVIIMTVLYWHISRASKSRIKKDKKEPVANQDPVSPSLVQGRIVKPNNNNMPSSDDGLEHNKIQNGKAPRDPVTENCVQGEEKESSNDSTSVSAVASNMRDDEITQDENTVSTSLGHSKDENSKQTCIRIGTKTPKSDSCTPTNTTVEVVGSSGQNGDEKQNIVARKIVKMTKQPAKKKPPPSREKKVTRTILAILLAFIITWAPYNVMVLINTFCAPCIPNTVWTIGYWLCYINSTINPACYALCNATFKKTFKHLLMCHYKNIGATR
Procedure, shortened: (§1)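 Radioligand displacement at cloned human or rodent CNS targets: 46–47 primary binding assays run in quadruplicate at 10 μM. Targets where the compound displaced an average of >50% of radiolabeled standard ligand went to secondary binding in 11-point dose-response, in triplicate; none run for H3, PBR or GABAA.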

[2] = target: T2, cloned human or rodent CNS receptors, channels, and transporters (PDSP panel) (Homo sapiens, UniProt P08912); conditions: primary assay
T2 construct: expressed in transfected cells
T2 sequence (P08912 1-532): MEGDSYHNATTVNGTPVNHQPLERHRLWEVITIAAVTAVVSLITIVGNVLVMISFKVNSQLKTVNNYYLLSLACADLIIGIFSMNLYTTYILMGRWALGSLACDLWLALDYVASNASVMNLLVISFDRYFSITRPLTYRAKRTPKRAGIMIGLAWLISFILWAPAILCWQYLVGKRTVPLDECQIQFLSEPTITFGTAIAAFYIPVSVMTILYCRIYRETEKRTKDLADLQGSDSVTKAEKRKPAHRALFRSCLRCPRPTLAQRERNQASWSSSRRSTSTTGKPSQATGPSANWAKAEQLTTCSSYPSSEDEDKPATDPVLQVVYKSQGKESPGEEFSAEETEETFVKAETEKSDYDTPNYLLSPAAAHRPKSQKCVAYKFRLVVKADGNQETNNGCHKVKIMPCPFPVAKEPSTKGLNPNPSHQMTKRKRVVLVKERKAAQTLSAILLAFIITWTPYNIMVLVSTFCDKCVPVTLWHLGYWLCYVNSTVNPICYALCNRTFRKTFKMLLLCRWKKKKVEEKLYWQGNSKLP
Procedure, shortened: as §1

[3] = target: T3, cloned human or rodent CNS receptors, channels, and transporters (PDSP panel) (Homo sapiens, UniProt P23975); conditions: primary assay
T3 construct: expressed in transfected cells
T3 sequence (P23975 whole entry): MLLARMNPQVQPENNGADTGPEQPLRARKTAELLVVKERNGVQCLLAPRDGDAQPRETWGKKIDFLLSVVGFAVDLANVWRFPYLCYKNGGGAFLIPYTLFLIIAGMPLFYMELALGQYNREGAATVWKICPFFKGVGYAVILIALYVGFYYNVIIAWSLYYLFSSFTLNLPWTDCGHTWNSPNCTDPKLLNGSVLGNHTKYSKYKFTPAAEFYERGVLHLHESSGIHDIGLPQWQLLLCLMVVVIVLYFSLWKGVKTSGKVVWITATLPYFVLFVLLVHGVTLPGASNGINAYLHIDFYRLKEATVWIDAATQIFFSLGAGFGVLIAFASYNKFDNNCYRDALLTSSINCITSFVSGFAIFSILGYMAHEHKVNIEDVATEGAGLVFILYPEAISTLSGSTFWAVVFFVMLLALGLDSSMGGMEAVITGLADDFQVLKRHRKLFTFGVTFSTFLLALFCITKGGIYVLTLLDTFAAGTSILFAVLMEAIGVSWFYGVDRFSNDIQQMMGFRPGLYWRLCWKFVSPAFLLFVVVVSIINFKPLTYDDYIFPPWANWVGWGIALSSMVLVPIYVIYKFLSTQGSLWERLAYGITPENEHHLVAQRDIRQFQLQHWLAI
Procedure, shortened: as §1

[4] = target: T4, cloned human or rodent CNS receptors, channels, and transporters (PDSP panel) (Homo sapiens, UniProt P35367); conditions: primary assay
T4 construct: expressed in transfected cells
T4 sequence (P35367 whole entry): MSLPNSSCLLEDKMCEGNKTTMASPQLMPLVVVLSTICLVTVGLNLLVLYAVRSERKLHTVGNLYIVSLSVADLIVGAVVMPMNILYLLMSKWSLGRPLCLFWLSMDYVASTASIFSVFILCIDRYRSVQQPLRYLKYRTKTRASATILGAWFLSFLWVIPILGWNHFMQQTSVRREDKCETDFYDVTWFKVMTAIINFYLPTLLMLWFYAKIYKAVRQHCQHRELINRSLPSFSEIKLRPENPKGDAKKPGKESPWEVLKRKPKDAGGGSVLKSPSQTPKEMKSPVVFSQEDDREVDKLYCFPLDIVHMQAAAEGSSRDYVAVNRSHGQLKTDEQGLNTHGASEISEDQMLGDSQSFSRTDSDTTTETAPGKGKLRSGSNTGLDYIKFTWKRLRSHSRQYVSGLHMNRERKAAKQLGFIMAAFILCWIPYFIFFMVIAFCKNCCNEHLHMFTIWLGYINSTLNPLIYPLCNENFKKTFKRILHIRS
Procedure, shortened: as §1

[5] = target: T5, cloned human or rodent CNS receptors, channels, and transporters (PDSP panel) (Homo sapiens, UniProt P41595); conditions: primary assay
T5 construct: expressed in transfected cells
T5 sequence (P41595 whole entry): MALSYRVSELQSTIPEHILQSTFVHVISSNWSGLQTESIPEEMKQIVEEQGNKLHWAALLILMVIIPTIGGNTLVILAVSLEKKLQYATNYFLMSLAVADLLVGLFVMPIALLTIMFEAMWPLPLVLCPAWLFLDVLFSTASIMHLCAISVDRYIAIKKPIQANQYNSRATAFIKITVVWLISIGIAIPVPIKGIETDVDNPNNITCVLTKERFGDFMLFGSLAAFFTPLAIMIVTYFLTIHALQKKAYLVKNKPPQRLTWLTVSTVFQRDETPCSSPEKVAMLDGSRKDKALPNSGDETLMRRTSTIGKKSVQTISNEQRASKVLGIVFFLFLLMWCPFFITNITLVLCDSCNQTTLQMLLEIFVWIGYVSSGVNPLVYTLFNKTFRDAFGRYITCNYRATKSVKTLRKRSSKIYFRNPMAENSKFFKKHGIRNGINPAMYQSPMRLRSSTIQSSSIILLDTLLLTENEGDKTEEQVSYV
Procedure, shortened: as §1

[6] = target: T6, cloned human or rodent CNS receptors, channels, and transporters (PDSP panel) (Homo sapiens, UniProt Q01959); conditions: DAT, primary assay; for Mean %: mean inhibition; for Inhibition 1: replicate 1; for Inhibition 2: replicate 2; for Inhibition 3: replicate 3; for Inhibition 4: replicate 4
T6 construct: expressed in transfected cells
T6 sequence (Q01959 whole entry): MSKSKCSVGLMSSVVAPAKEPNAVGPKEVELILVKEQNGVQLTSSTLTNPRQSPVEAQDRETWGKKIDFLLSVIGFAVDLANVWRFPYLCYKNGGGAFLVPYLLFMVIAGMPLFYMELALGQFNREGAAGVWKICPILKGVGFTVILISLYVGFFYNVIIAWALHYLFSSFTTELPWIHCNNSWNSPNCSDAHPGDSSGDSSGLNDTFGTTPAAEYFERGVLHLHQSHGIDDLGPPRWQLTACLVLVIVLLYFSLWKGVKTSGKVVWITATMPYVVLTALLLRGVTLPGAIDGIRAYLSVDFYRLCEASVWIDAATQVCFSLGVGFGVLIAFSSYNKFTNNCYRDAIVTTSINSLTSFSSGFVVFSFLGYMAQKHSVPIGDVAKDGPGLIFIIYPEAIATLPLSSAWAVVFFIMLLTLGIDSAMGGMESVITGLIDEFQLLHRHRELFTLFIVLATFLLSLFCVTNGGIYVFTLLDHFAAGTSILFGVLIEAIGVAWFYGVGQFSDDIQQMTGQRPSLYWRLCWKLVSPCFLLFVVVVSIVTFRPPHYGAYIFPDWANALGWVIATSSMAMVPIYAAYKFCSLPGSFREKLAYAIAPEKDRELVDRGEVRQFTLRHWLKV
Procedure, shortened: as §1

[7] = tested on: cloned human or rodent CNS receptors, channels, and transporters (PDSP panel); conditions: primary assay
Procedure, shortened: as §1

[8] = Receptor BZP Rat Brain Site, 10 μM

## O=c1oc2ccccc2cc1-c1cn2cc(Cc3ccc(F)cc3)sc2n1 [UNC10302680A, iMDK]
[1]
  Mean %: -8.2%
  Inhibition 1: -12.5%
  Inhibition 2: -5.38%
  Inhibition 3: -3.9%
  Inhibition 4: -11.03%
[2]; Receptor M5, 10 μM
  Inhibition 1: -0.74%
  Inhibition 2: -17.55%
  Inhibition 3: -6.68%
  Inhibition 4: -10.7%
[2]; Receptor M5, 10 μM, mean of Inhibition 1-4
  Mean %: -8.92%
[3]; NET, mean inhibition
  Mean %: 3.1%
[3]; NET, replicate 1
  Inhibition 1: -7.15%
[3]; NET, replicate 2
  Inhibition 2: -15.77%
[3]; NET, replicate 3
  Inhibition 3: -1.08%
[3]; NET, replicate 4
  Inhibition 4: 36.38%
[3]; Receptor NET, 10 μM
  Inhibition 1: 34.12%
  Inhibition 2: 0.12%
  Inhibition 3: -3.41%
  Inhibition 4: -3.8%
[3]; Receptor NET, 10 μM, mean of Inhibition 1-4
  Mean %: 6.76%
[4]; Receptor H1, 10 μM
  Inhibition 1: 99.74%
  Inhibition 2: 88.41%
  Inhibition 3: 71.44%
  Inhibition 4: 51.8%
[4]; Receptor H1, 10 μM, mean of Inhibition 1-4
  Mean %: 77.85%
[5]; Receptor 5-HT2B, 10 μM
  Inhibition 1: 9.18%
  Inhibition 2: -38.65%
  Inhibition 3: -23.13%
  Inhibition 4: -31.52%
[5]; Receptor 5-HT2B, 10 μM, mean of Inhibition 1-4
  Mean %: -21.03%
[6]
  Mean %: 24.58%
  Inhibition 1: 19.55%
  Inhibition 2: 22.26%
  Inhibition 3: 29.6%
  Inhibition 4: 26.9%
[7]; H3, mean inhibition
  Mean %: 41.02%
[7]; H3, replicate 1
  Inhibition 1: 20.04%
[7]; H3, replicate 2
  Inhibition 2: 32.28%
[7]; H3, replicate 3
  Inhibition 3: 47.14%
[7]; H3, replicate 4
  Inhibition 4: 64.63%
[7]; H4, mean inhibition
  Mean %: 39.36%
[7]; H4, replicate 1
  Inhibition 1: 11.58%
[7]; H4, replicate 2
  Inhibition 2: 47.34%
[7]; H4, replicate 3
  Inhibition 3: 40.86%
[7]; H4, replicate 4
  Inhibition 4: 57.67%
[7]; Receptor Alpha1A, 10 μM
  Inhibition 1: -21.6%
  Inhibition 2: -1.59%
  Inhibition 3: -0.84%
  Inhibition 4: -9.82%
[7]; Receptor Alpha1A, 10 μM, mean of Inhibition 1-4
  Mean %: -8.46%
[7]; Receptor Alpha2A, 10 μM
  Inhibition 1: 9.97%
  Inhibition 2: 11.68%
  Inhibition 3: -0.74%
  Inhibition 4: -29.15%
[7]; Receptor Alpha2A, 10 μM, mean of Inhibition 1-4
  Mean %: -2.06%
[7]; Receptor Alpha2C, 10 μM
  Inhibition 1: 20.53%
  Inhibition 2: 3.75%
  Inhibition 3: 5.64%
  Inhibition 4: 4%
[7]; Receptor Alpha2C, 10 μM, mean of Inhibition 1-4
  Mean %: 8.48%
[7]; [8]
  Inhibition 1: -12.35%
  Inhibition 2: -8.18%
  Inhibition 3: -22.2%
  Inhibition 4: 3.1%
[7]; Receptor BZP Rat Brain Site, 10 μM, mean of Inhibition 1-4
  Mean %: -9.91%
[7]; Receptor DOR, 10 μM
  Inhibition 1: -22.02%
  Inhibition 2: -14.61%
  Inhibition 3: -13.89%
  Inhibition 4: -8.29%
[7]; Receptor DOR, 10 μM, mean of Inhibition 1-4
  Mean %: -14.7%
[7]; Receptor Sigma 1, 10 μM
  Inhibition 1: 7.22%
  Inhibition 2: -7.42%
  Inhibition 3: 1.64%
  Inhibition 4: 5.36%
[7]; Receptor Sigma 1, 10 μM, mean of Inhibition 1-4
  Mean %: 1.7%
[7]; Receptor Sigma 2, 10 μM
  Inhibition 1: 14.42%
  Inhibition 2: 15.13%
  Inhibition 3: 40.23%
  Inhibition 4: 21.82%
[7]; Receptor Sigma 2, 10 μM, mean of Inhibition 1-4
  Mean %: 22.9%

## CCC(=O)N1CCC(NC(=O)Nc2ccc(OC(F)(F)F)cc2)CC1 [UNC10302681A, TPPU]
[1]
  Mean %: -13.3%
  Inhibition 1: -14.72%
  Inhibition 2: -20.61%
  Inhibition 3: -11.27%
  Inhibition 4: -6.61%
[2]; M5, mean inhibition
  Mean %: -2.23%
[2]; M5, replicate 1
  Inhibition 1: 18.08%
[2]; M5, replicate 2
  Inhibition 2: -1.14%
[2]; M5, replicate 3
  Inhibition 3: -10.91%
[2]; M5, replicate 4
  Inhibition 4: -14.93%
[3]; NET, mean inhibition
  Mean %: 2.26% and 4.05%
[3]; NET, replicate 1
  Inhibition 1: -18.41% and 34.38%
[3]; NET, replicate 2
  Inhibition 2: -17.53% and 14.34%
[3]; NET, replicate 3
  Inhibition 3: 0.52% and -19%
[3]; NET, replicate 4
  Inhibition 4: 44.45% and -13.54%
[4]; H1, mean inhibition
  Mean %: 74.57%
[4]; H1, replicate 1
  Inhibition 1: 97.51%
[4]; H1, replicate 2
  Inhibition 2: 87.07%
[4]; H1, replicate 3
  Inhibition 3: 65.55%
[4]; H1, replicate 4
  Inhibition 4: 48.14%
[5]; 5-HT2B, mean inhibition
  Mean %: 40.75%
[5]; 5-HT2B, replicate 1
  Inhibition 1: 68.75%
[5]; 5-HT2B, replicate 2
  Inhibition 2: 29.73%
[5]; 5-HT2B, replicate 3
  Inhibition 3: 25.12%
[5]; 5-HT2B, replicate 4
  Inhibition 4: 39.38%
[6]
  Mean %: 59.91%
  Inhibition 1: 71.52%
  Inhibition 2: 71.2%
  Inhibition 3: 51.64%
  Inhibition 4: 45.27%
[7]; Alpha1A, mean inhibition
  Mean %: -2.01%
[7]; Alpha1A, replicate 1
  Inhibition 1: 4.58%
[7]; Alpha1A, replicate 2
  Inhibition 2: -5.33%
[7]; Alpha1A, replicate 3
  Inhibition 3: -5.52%
[7]; Alpha1A, replicate 4
  Inhibition 4: -1.78%
[7]; Alpha2A, mean inhibition
  Mean %: -5.2%
[7]; Alpha2A, replicate 1
  Inhibition 1: -1.74%
[7]; Alpha2A, replicate 2
  Inhibition 2: -8.16%
[7]; Alpha2A, replicate 3
  Inhibition 3: -13.09%
[7]; Alpha2A, replicate 4
  Inhibition 4: 2.19%
[7]; Alpha2C, mean inhibition
  Mean %: -0.34%
[7]; Alpha2C, replicate 1
  Inhibition 1: 3.18%
[7]; Alpha2C, replicate 2
  Inhibition 2: -3.57%
[7]; Alpha2C, replicate 3
  Inhibition 3: 7.34%
[7]; Alpha2C, replicate 4
  Inhibition 4: -8.31%
[7]; BZP Rat Brain Site, mean inhibition
  Mean %: 9.51%
[7]; BZP Rat Brain Site, replicate 1
  Inhibition 1: 23.2%
[7]; BZP Rat Brain Site, replicate 2
  Inhibition 2: 7.09%
[7]; BZP Rat Brain Site, replicate 3
  Inhibition 3: 1.4%
[7]; BZP Rat Brain Site, replicate 4
  Inhibition 4: 6.33%
[7]; DOR, mean inhibition
  Mean %: -1.52%
[7]; DOR, replicate 1
  Inhibition 1: 6.89%
[7]; DOR, replicate 2
  Inhibition 2: -4.86%
[7]; DOR, replicate 3
  Inhibition 3: -4.68%
[7]; DOR, replicate 4
  Inhibition 4: -3.41%
[7]; GABAA, mean inhibition
  Mean %: -2.31% and -7.5%
[7]; GABAA, replicate 1
  Inhibition 1: 16.54% and 5.88%
[7]; GABAA, replicate 2
  Inhibition 2: -7.12% and -3.31%
[7]; GABAA, replicate 3
  Inhibition 3: -2.68% and -32.5%
[7]; GABAA, replicate 4
  Inhibition 4: -15.99% and -0.07%
[7]; H3, mean inhibition
  Mean %: 21.21%
[7]; H3, replicate 1
  Inhibition 1: 28.2%
[7]; H3, replicate 2
  Inhibition 2: 25.87%
[7]; H3, replicate 3
  Inhibition 3: 12.17%
[7]; H3, replicate 4
  Inhibition 4: 18.58%
[7]; H4, mean inhibition
  Mean %: -7.02%
[7]; H4, replicate 1
  Inhibition 1: -3.06%
[7]; H4, replicate 2
  Inhibition 2: -20.34%
[7]; H4, replicate 3
  Inhibition 3: -7.38%
[7]; H4, replicate 4
  Inhibition 4: 2.7%
[7]; Sigma 1, mean inhibition
  Mean %: 19.57%
[7]; Sigma 2, mean inhibition
  Mean %: 21.21%
